# Source: US10159667B2, “Composition containing a DPP-IV inhibitor for preventing or treating renal diseases” (DONG-A ST CO., LTD, priority 2013, dated 2018)
# Marks after values point to notes of the source that are not given here.
# Tests used:
# db/db mice [1] = experiment: Weight, food intake, water intake, fasting blood glucose, urine output, HbA1c and blood pressure in db/db mice; type: in vivo
# Procedure: 6-week old mice were used. db/m mice were set as the non-diabetic control group (7 for each stage, n=28), and divided db/db mice into the diabetic group (7 for each stage, n=28) and DA1229 administration group (n=8). 0.3% (W/W, 300 mg/kg/day) of DA1229, a DPP-IV inhibitor, was mixed with feed and provided to the DA1229 administration group while only feed was provided to the diabetic group. Weight, food intake, water intake, fasting blood glucose, urine output, hemoglobin A1c value (HbA1c) and blood pressure (i.e. systolic blood pressure, SBP) of the non-diabetic control group (db/m control group) and the diabetic group (db/db) were measured at week 0, 4, 8 and 12 of administration; and that of the DA1229 administration group were measured at week 12. HbA1c was measured by using the DCA 2000+ (Bayer Healthcare, Wuppertal, Germany) Analyzer.
# db/db mice [2] = experiment: Blood lipid concentration in db/db mice; type: in vivo; details: 12th week of administration, FIG. 4
# Procedure: In diabetic patients, blood lipids are tend to be increased and lipids are tend to be deposited in liver (i.e. hepatic steatosis) due to failure of lipid metabolism. Following experiment has been conducted to confirm whether DA1229 improves lipid metabolism. […] Concentrations of lipids, that are total cholesterol, triglyceride, HDL-cholesterol and LDL-cholesterol, of plasma of the non-diabetic control group, the diabetic group and the DA1229 administration group were measured at 12th week of administration. Concentration of total cholesterol and triglyceride were measured by using a ELISA reader (Micro-Quant, Bio-Tek Instruments, Colmar, France) after using the GPO-Trinder kit (Sigma, St. Louis, Mo., USA); and HDL-cholesterol and LDL-cholesterol were measured by using a TBA-200FR NEO (Toshiba, Japan).
# db/db mice [3] = experiment: Hepatic steatosis: H&E-stained liver sections; type: in vivo; details: 12th week of administration, FIG. 5
# Excerpt: Liver tissues collected from the non-diabetic control group, the diabetic group and the DA1229 administration group were sectioned by a microtome and embedded in paraffin after alcohol dehydration at 12th week of administration. These sections were stained by Hematoxylin-eosin, and then lipid deposition was observed by using a microscope (STM6-LM Olympus NDT Inc, USA) (see FIG. 5).
# db/db mice [4] = experiment: Plasma creatinine by modified Jaffe method; type: in vivo
# db/db mice [5] = experiment: Microalbuminuria: 24 h urinary albumin excretion by ELISA; type: in vivo; details: FIG. 6
# Procedure: When diabetes is progressed, phenomena of renal glomeruli destruction and protein (albumin) excretion incur, and microalbuminuria is directed to a case when the amount of the excretion is small. Microalbuminuria is one of the initial indices of renal diseases, and the gomeruli destruction becomes more severe as diabetes progresses. Accordingly the amount of protein excretion will increase. […] Microalbuminuria was observed by measuring the amount of urinary excretion of albumin during 24 hours in the non-diabetic control group, the diabetic group and the DA1229 administration group at week 0, 4, 8 and 12 of administration. The amount of albumin excretion was measured by using a ELISA reader (Micro-Quant, Bio-Tek Instruments, Colmar, France) after using the ELISA kit (Shibayagi, Shibukawa, Japan).
# db/db mice [6] = experiment: Histological evaluation of renal mesangial expansion (PAS staining); type: in vivo; details: 12th week of administration, FIG. 7
# Excerpt: Mesangial expansion incurs in kidney when renal destruction progresses in renal diseases. Therefore, glomerular mesangial expansion in the non-diabetic control group, the diabetic group and the DA1229 administration group was observed. […] Renal glomerular tissues were collected and sectioned by a microtome and embedded in paraffin after alcohol dehydration. The sections were stained by using PAS (periodic acid-Schiff); observed by using a microscope (STM6-LM Olympus NDT Inc, USA) (see FIG. 7B); and scored by a pathologist (see FIG. 7A.)
# db/db mice [7] = experiment: Renal fibrosis: immunohistochemistry of TGF β1, Type IV collagen and PAI-1; type: in vivo; details: 12th week
# Excerpt: Renal glomerular tissues were collected and sectioned by a microtome and embedded in paraffin after alcohol dehydration. The sections were stained via immunohistochemistry; each of deposited TGF β1, Type IV collagen and PAI-1 in kidney was observed by using a microscope (STM6-LM Olympus NDT Inc, USA) (see FIG. 8); and degree and range of the staining were scored by a pathologist (see FIG. 9).
# db/db mice [8] = experiment: Renal lipid metabolism: mRNA expression of ABCA1 and HMG-CoA reductase; type: in vivo; details: 12th week, FIGS. 11 and 12
# db/db mice [9] = experiment: Urinary nephrin excretion by EIA, normalized by creatinine; type: in vivo; details: FIG. 13
# Excerpt: Nephrin is a protein expressed on cell membrane of podocyte which forms glomerular filtration membrane. Nephrin forms a filtration barrier by binding to adjacent podocyte. When proteinuria incurs due to glomerular damage, nephrin barrier is damaged because nephrin expression in podocyte decreases, and accordingly, urinary excretion of nephrin increases. Therefore, urinary excretion of nephrin and nephrin expression in kidney in the non-diabetic control group, the diabetic group and the DA1229 administration group were observed. […] It was then normalized by creatinine excretion, which is proportional to a volume of urination (measured by the modified Jaffe method) and shown in the left-hand side graph in FIG. 13.
# db/db mice [10] = experiment: Renal nephrin expression by immunostaining; type: in vivo; details: FIG. 13
# Excerpt: Nephrin is a protein expressed on cell membrane of podocyte which forms glomerular filtration membrane. Nephrin forms a filtration barrier by binding to adjacent podocyte. When proteinuria incurs due to glomerular damage, nephrin barrier is damaged because nephrin expression in podocyte decreases, and accordingly, urinary excretion of nephrin increases. Therefore, urinary excretion of nephrin and nephrin expression in kidney in the non-diabetic control group, the diabetic group and the DA1229 administration group were observed. […] In addition, kidneys were isolated from each group; renal tissues were separated, immunostained with nephrin-specific antibody, and observed by using a microscope. Result is shown in right-hand side of FIG. 13. It is shown that observed nephrin was few in the diabetic group compared to the non-diabetic control group, but much in the DA1229 administration group.
# [11] = system: non-diabetic renal disease mouse model; experiment: Microalbuminuria and nephrin excretion in adriamycin (ADX) non-diabetic renal disease mouse model; type: in vivo, mice; details: for urinary excretion of albumin / urinary excretion of nephrin: ADX 13 mg/kg i.v. mice, vs control
# Procedure: Non-diabetic renal diseases occurs via induction of glomerular podocyte damage when injecting adriamycin (hereinafter, ADX) that is an anti-cancer agent. Thirty mice at the age of 6 weeks were divided into 3 groups (n=10/group) after single intravenous injection of 13 mg/kg of ADX. For the first group, the administration of DA1229 was initiated immediately and maintained while renal disease incurred and developed. For the second group, administration of DA1229 was performed 3 weeks after single ADX injection, for the purpose of administering DA1229 after renal disease was progressed to some degree. The third group was set as a control group without any additional action. DA1229 was administered as a mixture with diet at 0.3% (W/W, 300 mg/kg/day) to the first and second groups. Only feed was provided to the control group. Microalbuminuria and nephrin excretion of each group were measured at 5th week of administration.
# podocytes = experiment: Nephrin expression in podocytes under glucose and angiotensin II stimuli (western blot); type: cell-based; details: 10 nM, 72 hours, 30 mM glucose and 100 nM angiotensin II, FIG. 18
# Procedure: Effects of DA1229, linagliptin, saxagliptin and sitagliptin on nephrin expression under stimuli of glucose and angiotensin II that are same to the stimulation occurring in diabetes were observed below.
# Podocytes were cultured for 72 hours in media containing 30 mM of glucose, 100 nM of angiotensin II; and any one of 10 nM of DA1229, 10 nM of linagliptin, 1 nM of saxagliptin and 10 nM of sitagliptin. After that, the media were removed; cells were lysed; and changes of intracellularly expressed nephrin were measured through western blot by using polyclonal antibody (Santa Crúz, SC-19000.)
# db/db mice [12] = experiment: Renal fibrosis: mRNA expression of TGF β1, Type IV collagen and PAI-1 by real-time PCR; details: 12th week, relative to β-actin, FIG. 10
# [13] = DA1229 0.3% W/W in feed (300 mg/kg/day), wk 12, mean ± SEM
# [14] = DA1229 administered for 12 weeks
smiles,measurement,setting,value
"CC(C)(C)OC[C@@H]1C(=O)NCCN1C(=O)C[C@H](N)Cc1cc(F)c(F)cc1F [DA1229, (R)-4-{(R)-3-amino-4-(2,4,5-trifluorophenyl)butanoyl}-3-(t-butoxymethyl)piperazin-2-one]",Daily Water Intake,db/db mice [1]; [13],"8.6 ± 0.4**^,# g"
same,Fasting Blood Glucose,db/db mice [1]; [13],466 ± 66 mg/dL
same,HbAlc,db/db mice [1]; [13],8.58 ± 0.79 %
same,Urine Output,db/db mice [1]; [13],1.07 ± 0.29 mL/day
same,fasting blood glucose compared to the diabetic group,db/db mice [1]; [14],markedly decreased
same,urine output compared to the diabetic group,db/db mice [1]; [14],no significant differences
same,water intake compared to the diabetic group,db/db mice [1]; [14],markedly decreased
same,plasma LDL-cholesterol concentration,db/db mice [2],restored to the level of the non-diabetic control group
same,plasma total cholesterol concentration,db/db mice [2],restored to the level of the non-diabetic control group
same,plasma triglyceride concentration,db/db mice [2],restored to the level of the non-diabetic control group
same,lipid deposition of liver tissues,db/db mice [3],restored to the level of the non-diabetic control group
same,Plasma Creatinine,"db/db mice [4]; DA1229 300 mg/kg/day in feed, wk 12, ± SEM",29.0 ± 2.0 µmol/L
same,plasma creatinine compared to the diabetic group,db/db mice [4]; wk 12,markedly decreased
same,microalbuminuria until 4th week,db/db mice [5],not observed
same,amount of urinary excretion of albumin after 4th week,db/db mice [5]; vs diabetic group,much smaller than that of the diabetic group
same,glomerular mesangial expansion,db/db mice [6],improved to a level close to the non-diabetic control group
same,TGF β1 deposited in kidney (immunohistochemistry),db/db mice [7]; FIGS. 8A and 9,markedly decreased
same,Type IV collagen deposited in kidney (immunohistochemistry),db/db mice [7]; FIGS. 8B and 9,decreased to the level of the non-diabetic control group
same,PAI-1 deposited in kidney (immunohistochemistry),db/db mice [7]; FIGS. 8C and 9,decreased to the level of the non-diabetic control group
same,renal mRNA expression of ABCA1,db/db mice [8],markedly increased
same,renal mRNA expression of HMG-CoA reductase,db/db mice [8],decreased to the level of the non-diabetic control group
same,content of nephrin in urine,db/db mice [9],markedly decreased
same,nephrin observed in renal tissue (immunostaining),db/db mice [10],much
same,urinary excretion of albumin,"[11]; first group: DA1229 300 mg/kg/day started with induction of renal disease, FIG. 14A",significantly decreased
same,urinary excretion of nephrin,"[11]; first group: DA1229 300 mg/kg/day started with induction of renal disease, FIG. 14B",significantly decreased
same,urinary excretion of albumin,"[11]; second group: DA1229 300 mg/kg/day started 3 weeks after ADX, FIG. 15A",significantly decreased
same,urinary excretion of nephrin,"[11]; second group: DA1229 300 mg/kg/day started 3 weeks after ADX, FIG. 15B",significantly decreased
same,effect of decreasing albumin excretion over time,"[11]; ADX mice, second group, FIG. 15",became more significant as time passed
same,nephrin expression in podocytes,podocytes,maintained equally to the control group
same,renal mRNA expression of PAI-1,db/db mice [12],markedly decreased
same,renal mRNA expression of TGF β1,db/db mice [12],markedly decreased
same,renal mRNA expression of Type IV collagen,db/db mice [12],markedly decreased
"N[C@@H](CC(=O)N1CCn2c(nnc2C(F)(F)F)C1)Cc1cc(F)c(F)cc1F [sitagliptin, reference compound]",nephrin expression in podocytes,podocytes,almost no difference compared to the group treated only with glucose and angiotensin II
